The labels stand for the following.
B1: Selenoprotein P untreated: full-length selenoprotein P purified from human plasma in Example 1, M.W. around 67,000 in SDS-PAGE (protein, UniProt P49908 20-381, looked up)
Selenoprotein P: ESQDQSSLCKQPPAWSIRDQDPMLNSNGSVTVVALLQASUYLCILQASKLEDLRVKLKKEGYSNISYIVVNHQGISSRLKYTHLKNKVSEHIPVYQQEENQTDVWTLLNGSKDDFLIYDRCGRLVYHLGLPFSFLTFPYVEEAIKIAYCEKKCGNCSLTTLKDEDFCKRVSLATVDKTVETPSPHYHHEHHHNHGHQHLGSSELSENQQPGAPNAPTHPAPPGLHHHHKHKGQHRQGHPENRDMPASEDLQDLQKKLCRKRCINQLLCKLPTDSELAPRSUCCHCRHLIFEKTGSAITUQCKENLPSLCSUQGLRAEENITESCQURLPPAAUQISQQLIPTEASASURUKNQAKKUEUPSN

The first test concerns Dami cells. In words: Cell death-inhibitory activity in Dami cells in serum-free medium with BSA and linoleic acid. It counts as cell-based, human. Particulars: each 1 ppm selenium added to the system; Dami cells. The source says:
For screening a cell death-inhibitory activity for isolation and identification of the C-terminal fragment of selenoprotein P as described above, a culture system of Dami cells, human megakaryoblasts, with serum free culture medium supplemented with albumin was suitably used. […] With culture medium containing 0.01 to 0.5% human serum albumin, the cells grow normally but on Day 4 and henceforth all the cells are put to death abruptly. A cell death-inhibitory activity in a sample may be measured by applying the sample to this culture system.
The cells were cultured for three days and recovered for assay. The recovered cells were washed twice with SA/0.05% skimmed BSA (manufactured by SIGMA) containing 4 μM linoleic acid and suspended in the same medium at 3×10^4 cells/mL. The cell suspension was then added to a 96-well plate in each 200 μl for wells for sample addition or in each 100 μl for wells for serial dilution. To the wells for sample addition was added 2 μl sample and, after stirring, a serial dilution was made with the wells containing 100 μl cell suspension. The plate was incubated at 37° C. in CO2 incubator for 4 to 5 days followed by assessment. In this system, Dami cells will die in the wells added with samples having no activity but will survive in the wells added with samples having the activity on Day 4 and thenceforth. Thus, assessment was made with to what folds of dilution of tested samples the living cells could survive. Therefore, the higher the value in the following table, the higher a cell death-inhibitory activity.
After washing the column with about 8 mL PBS, elution was made with 0.1 M glycine, pH 2.8. The eluate fractions were neutralized with about 1/10 amount of 1 M Tris-HCl. The fraction that passed through chromatographic column and the washing fractions were pooled, concentrated with SpeedVac, and dialyzed against PBS.
On to B1, for which the “Cell death-inhibitory activity (Folds of dilution)” value is recorded as 5000 Folds of dilution.

The test is the same for the next values; noted with them: selenoprotein P digested with 1/10 weight of enzyme, 37° C., 24 hours; 2 μl sample serially diluted; Dami cell survival at 4 to 5 days.
In the case of Trypsin, the “Cell death-inhibitory activity (Folds of dilution)” value is 600 Folds of dilution.

Turning to Plasmin, the “Cell death-inhibitory activity (Folds of dilution)” value was 600 Folds of dilution. For the molecule Thrombin, the “Cell death-inhibitory activity (Folds of dilution)” value is listed as 600 Folds of dilution. Consider Activated protein C, for which the “Cell death-inhibitory activity (Folds of dilution)” value is listed as 800 Folds of dilution.

With Elastase, the “Cell death-inhibitory activity (Folds of dilution)” value is 600 Folds of dilution. In the case of B1, the “Cell death-inhibitory activity (Folds of dilution)” value is given as 400 Folds of dilution.

These data come from US20040197852A1, “Method of preparing peptide fragment having cell death inhibitory activity” (priority 2001, published 2004).
